In patent US20260035339A1, “TETRAHYDRONAPHTHALENE DERIVATIVE” (ATRANSEN PHARMA LTD., priority 2022, published 2026):

Assays:
[1] = system: Mouse colorectal cancer-derived CT26 cells; assay: Cell proliferation inhibitory effect using mouse colorectal cancer cells (CCK-8 assay); assay type: cell-based; conditions: 72 hours compound treatment, read-out: Evaluation of IC50 (proliferation inhibition rate of 50%)
Description: Mouse colorectal cancer-derived CT26 cells were adjusted to […], seeded in a 96-well plate at 1000 cells/well, and cultured in a 10% fetal bovine serum-added RPMI 1640 medium at 5% CO2 and 37° C. The culture medium was changed 24 hours after the start of the culture, and the medium containing the compound of Example was replaced to examine the action of the compound on cell proliferation. As the compound, a concentration of 0.01, 0.03, 0.1, 0.3, 1, 3, 10, or 30 μM was used. As a control, the cells were cultured in a medium containing no compound. The number of cells was evaluated by CCK-8 assay (Cell Counting Kit-8, DOJINDO LABORATORIES) 72 hours after the start of the compound treatment, and the compound concentration (IC50 value) giving a proliferation inhibition rate of 50% as compared with the control was calculated.

human LAT1 = human LAT1 (Homo sapiens, UniProt Q01650); assay: [14C]L-leucine uptake inhibition test using human-LAT1 stably expressing HEK293 cell line; assay type: cell-based; set-up: having full-length cDNA of human LAT1 or LAT2 inserted under a promoter of CMV; expressed in transfected cells; key to Assay Data: degree of [14C]L-leucine uptake inhibition compared with BCH: a test compound having a higher inhibitory effect than BCH is denoted by A; a test compound having the same inhibitory effect as BCH is denoted by B; a test compound having a lower inhibitory effect than BCH is denoted by C; conditions: for Assay Data: degree of [14C]L-leucine uptake inhibition compared with BCH: compound (racemic form) and BCH at 0.1, 1.0, 10 μM, 1 μM [14C]L-leucine, 1 minute, Na+-free HBSS
Source text: HEK293 cells stably expressing human LAT1 and LAT2 were produced, respectively.
A shuttle vector DNA (LAT1: pcDNA3.1(+) -hLAT1, LAT2: pcDNA3.1(+) -hLAT2; expression vector pcDNA3.1 (+) was produced by Invitrogen Corp.) having ampicillin and neomycin resistance markers and having full-length cDNA of human LAT1 or LAT2 inserted under a promoter of CMV (cytomegalovirus) was constructed. This vector was transfected into the HEK293 cells by a method using Lipofectamine (registered trademark) 2000 (Invitrogen Corp.) according to the manufacturer's instructions. Thereafter, stably expressing cell clones of transgene were selected by a limiting dilution method in the presence of 0.9 mg/mL of Geneticin (registered trademark), and among the obtained cell clones, cell clones having a high uptake of [^14C]L-leucine and maintaining stable expression even after 10 passages were obtained. These cells were used for evaluating affinity and selectivity for LAT1 and LAT2.
1-1. It has been confirmed that LAT1 is responsible for L-leucine uptake in the absence of sodium ions in the human-LAT1 stably expressing HEK293 cell line. The human-LAT1 stably expressing HEK293 cell line was seeded in a 24-well plate at 1×10^5 Cell/Well, and the [^14C]L-leucine uptake inhibition test using the compound was performed after 48 hours. After the medium was removed and the cells were washed with Hank's balanced salt solution (Na^+-free HBSS) not containing sodium ions, the cells were cultured in Na^+-free HBSS for 10 minutes. Thereafter, 1 μM of [^14C]L-leucine was taken up in Na^+-free HBSS in the presence of a test compound (0.1, 1.0, 10, 0 μM in each case), which is a racemic form, for 1 minute, and then the cells were washed three times with ice-cooled Na^+-free HBSS. To the well, 500 μL of 1 M NaOH was added, and after 30 minutes, the cells were lysed, and the cell lysate was collected. The amount of [^14C]L-leucine in the cell lysate was determined using a liquid scintillator. The amount of protein in the cell lysate was measured using BCA Assay Kit (Thermofisher Scientific), and the uptake amount of [^14C]L-leucine per 1 mg of protein in the cell per minute was calculated.
The degree of LAT1 inhibition of the compound obtained in the present invention was compared with BCH (BCH, 2-aminobicyclo-(2,2,1)-heptane-2-carboxylic acid), which is an existing LAT1 inhibitor. In the [^14C]L-leucine uptake inhibition test described above, the degrees of inhibition of [^14C]L-leucine uptake inhibition using the compound (racemic form) obtained in Examples and BCH (0.1, 1.0, 10, 0 μM for both) were compared. […] In the table, a test compound having a higher inhibitory effect than BCH is denoted by A, a test compound having the same inhibitory effect as BCH is denoted by B, and a test compound having a lower inhibitory effect than BCH is denoted by C.

Sequence of human LAT1 (Q01650 whole entry): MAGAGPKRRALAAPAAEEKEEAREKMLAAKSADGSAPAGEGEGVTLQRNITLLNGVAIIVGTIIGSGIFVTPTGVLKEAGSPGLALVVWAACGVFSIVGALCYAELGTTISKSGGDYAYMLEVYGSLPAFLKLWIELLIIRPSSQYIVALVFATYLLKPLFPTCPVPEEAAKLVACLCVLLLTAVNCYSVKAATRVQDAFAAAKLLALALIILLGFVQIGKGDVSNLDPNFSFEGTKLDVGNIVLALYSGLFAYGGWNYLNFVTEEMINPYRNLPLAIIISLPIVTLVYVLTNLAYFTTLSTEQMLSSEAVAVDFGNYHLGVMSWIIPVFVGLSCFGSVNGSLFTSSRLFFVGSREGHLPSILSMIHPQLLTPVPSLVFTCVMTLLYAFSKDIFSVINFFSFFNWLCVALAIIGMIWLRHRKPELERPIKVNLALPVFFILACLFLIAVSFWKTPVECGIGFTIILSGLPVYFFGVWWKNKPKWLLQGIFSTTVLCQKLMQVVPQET
Sequence of human LAT1 (P08195 102-630 partner): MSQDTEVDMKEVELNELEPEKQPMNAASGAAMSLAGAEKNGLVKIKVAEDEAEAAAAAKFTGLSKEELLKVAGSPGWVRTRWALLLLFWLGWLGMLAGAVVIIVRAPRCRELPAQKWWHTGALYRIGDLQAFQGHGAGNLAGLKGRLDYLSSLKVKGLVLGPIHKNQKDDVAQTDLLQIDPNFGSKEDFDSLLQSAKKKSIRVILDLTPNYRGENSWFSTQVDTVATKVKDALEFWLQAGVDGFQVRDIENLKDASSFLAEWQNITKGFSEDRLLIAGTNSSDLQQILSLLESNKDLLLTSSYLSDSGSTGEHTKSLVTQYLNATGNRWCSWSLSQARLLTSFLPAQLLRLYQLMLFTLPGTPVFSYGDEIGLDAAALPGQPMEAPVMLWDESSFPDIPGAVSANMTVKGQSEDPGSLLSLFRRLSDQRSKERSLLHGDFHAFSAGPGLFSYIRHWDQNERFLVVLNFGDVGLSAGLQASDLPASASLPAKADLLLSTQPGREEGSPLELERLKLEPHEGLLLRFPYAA

Compound	IC50 [1] [nM]	Assay Data: degree of [14C]L-leucine uptake inhibition compared with BCH (human LAT1)	LAT1 inhibitory effect, compounds singled out (in words) (human LAT1; same test as Table 1)	[14C]L-leucine uptake inhibition via LAT1 (in words) (human LAT1; 0.1 to 10 μM)
NC1(C(=O)O)CCc2ccc(Oc3ccc4ncccc4c3)cc2C1 (stereo not shown) [Example 1-8, 2-amino-7-(quinoline-6-yloxy)-1,2,3,4-tetrahydronaphthalene-2-carboxylic acid]		A		
Cl.NC1(C(=O)O)CCc2ccc(Oc3cccc(-c4ccc5ccccc5c4)c3)cc2C1 (stereo not shown) [Example 1-13, 2-carboxy-7-(3-(naphthalene-2-yl)phenoxy)-1,2,3,4-tetrahydronaphthalene-2-aminium chloride]		A		
Cl.NC1(C(=O)O)CCc2ccc(Oc3cccc4ccccc34)cc2C1 (stereo not shown) [Example 1-4, 2-carboxy-7-(naphthalene-1-yloxy)-1,2,3,4-tetrahydronaphthalene-2-aminium chloride]	≤ 900	A	particularly remarkable effects	
Cl.NC1(C(=O)O)CCc2ccc(Oc3cccc(-c4ccccc4)c3)cc2C1 (stereo not shown) [Example 1-2, 7-([1,1′-biphenyl]-3-yloxy)-2-carboxy-1,2,3,4-tetrahydronaphthalene-2-aminium chloride]		A		
Cl.NC1(C(=O)O)CCc2ccc(Oc3ccc(-c4ccccc4)cc3)cc2C1 (stereo not shown) [Example 1-12, 7-([1,1′-biphenyl]-4-yloxy)-2-carboxy-1,2,3,4-tetrahydronaphthalene-2-aminium chloride]		A		
Cl.NC1(C(=O)O)CCc2ccc(Oc3cccc(-c4ccc(Cl)cc4)c3)cc2C1 (stereo not shown) [Example 1-10, 2-carboxy-7-((4′-chloro-[1,1′-biphenyl]-3-yl)oxy)-1,2,3,4-tetrahydronaphthalene-2-aminium chloride]		A		
Cl.NC1(C(=O)O)CCc2ccc(Oc3cccc(-c4cccc(Cl)c4)c3)cc2C1 (stereo not shown) [Example 1-11, 2-carboxy-7-((3′-chloro-[1,1′-biphenyl]-3-yl)oxy)-1,2,3,4-tetrahydronaphthalene-2-aminium chloride]		A		
Cl.NC1(C(=O)O)CCc2ccc(Oc3ccc4occc4c3)cc2C1 (stereo not shown) [Example 1-3, 7-(benzofuran-5-yloxy)-2-carboxy-1,2,3,4-tetrahydronaphthalene-2-aminium chloride]		A		
CN(C)c1ccc2cc(Oc3ccc4c(c3)CC(N)(C(=O)O)CC4)ccc2c1 (stereo not shown) [Example 1-6, 2-amino-7-((6-(dimethylamino)naphthalene-2-yl)oxy)-1,2,3,4-tetrahydronaphthalene-2-carboxylic acid]		A		
NC1(C(=O)O)CC2CCC1C2 (stereo not shown) [BCH, 2-aminobicyclo-(2,2,1)-heptane-2-carboxylic acid, reference compound]				weak
CN(C)c1ccc2ccc(Oc3ccc4c(c3)CC(N)(C(=O)O)CC4)cc2c1 (stereo not shown) [Example 1-7, 2-amino-7-((7-(dimethylamino)naphthalene-2-yl)oxy)-1,2,3,4-tetrahydronaphthalene-2-carboxylic acid]		A		
COc1ccc2ccc(Oc3ccc4c(c3)CC(N)(C(=O)O)CC4)cc2c1.Cl (stereo not shown) [Example 1-5, 2-carboxy-7-((7-methoxynaphthalene-2-yl)oxy)-1,2,3,4-tetrahydronaphthalene-2-aminium chloride]		A		
NC1(C(=O)O)CCc2ccc(Oc3cccc(-c4ccccn4)c3)cc2C1 (stereo not shown) [Example 1-9, 2-amino-7-(3-(pyridine-2-yl)phenoxy)-1,2,3,4-tetrahydronaphthalene-2-carboxylic acid]		A		

Results, then the molecule that gave them:

IC50 [1] [nM]	Assay Data: degree of [14C]L-leucine uptake inhibition compared with BCH (human LAT1)	LAT1 inhibitory effect, compounds singled out (in words) (human LAT1; same test as Table 1)	[14C]L-leucine uptake inhibition via LAT1 (in words) (human LAT1; 0.1 to 10 μM)	Compound
≤ 900	A			Cl.NC1(C(=O)O)CCc2ccc(Oc3ccccc3-c3cc(F)cc(Cl)c3)cc2C1 (stereo not shown) [Example 1-66, 2-Carboxy-7-((3′-chloro-5′-fluoro-[1,1′-biphenyl]-2-yl)oxy)-1,2,3,4-tetrahydronaphthalene-2-aminium chloride]
≤ 900	A			Cl.NC1(C(=O)O)CCc2ccc(Oc3ccc([N+](=O)[O-])cc3-c3cccc4ccccc34)cc2C1 (stereo not shown) [Example 1-69, 2-Carboxy-7-(2-(naphthalen-1-yl)-4-nitrophenoxy)-1,2,3,4-tetrahydronaphthalene-2-aminium chloride]
≤ 900	A			Cl.NC1(C(=O)O)CCc2ccc(Oc3ccccc3-c3cc(F)cc(F)c3)cc2C1 (stereo not shown) [Example 1-65, 2-Carboxy-7-((3′,5′-difluoro-[1,1′-biphenyl]-2-yl)oxy)-1,2,3,4-tetrahydronaphthalene-2-aminium chloride]
≤ 900	A			NC1(C(=O)O)CCc2ccc(Oc3ccccc3-c3cc(F)cc(Cl)c3Cl)cc2C1 (stereo not shown) [Example 1-67, 2-carboxy-7-((2′,3′-dichloro-5′-fluoro-[1,1′-biphenyl]-2-yl)oxy)-1,2,3,4-tetrahydronaphthalene-2-aminium chloride]
	B			NC1(C(=O)O)CCc2cc(Oc3ccc(-c4cccnc4)cc3)ccc2C1 (stereo not shown) [Example 2-2, 3-(4-((6-ammonio-6-carboxy-5,6,7,8-tetrahydronaphthalene-2-yl)oxy)phenyl) pyridine-1-ium chloride]
≤ 900	A			Cl.NC1(C(=O)O)CCc2ccc(Oc3ccccc3-c3c(F)c(F)c(F)c(F)c3F)cc2C1 (stereo not shown) [Example 1-64, 2-carboxy-7-((2′,3′,4′,5′,6′-pentafluoro-[1,1′-biphenyl]-2-yl)oxy)-1,2,3,4-tetrahydronaphthalene-2-aminium chloride]
≤ 900	A			CCc1cccc(-c2ccccc2Oc2ccc3c(c2)CC(N)(C(=O)O)CC3)c1.Cl (stereo not shown) [Example 1-47, 2-carboxy-7-((3′-ethyl-[1,1′-biphenyl]-2-yl)oxy)-1,2,3,4-tetrahydronaphthalene-2-aminium chloride]
900 to 5000				NC1(C(=O)O)CCc2ccc(Oc3ccc([N+](=O)[O-])cc3)cc2C1 (stereo not shown) [Example 1-68, 2-carboxy-7-(4-nitrophenoxy)-1,2,3,4-tetrahydronaphthalene-2-aminium chloride]
≤ 900	A			Cl.NC1(C(=O)O)CCc2ccc(Oc3ccccc3-c3ccc(F)c(F)c3)cc2C1 (stereo not shown) [Example 1-56, 2-carboxy-7-((3′,4′-Difluoro-[1,1′-Biphenyl]-2-yl)oxy)-1,2,3,4-tetrahydronaphthalene-2-aminium chloride]
	A			Cl.NC1(C(=O)O)CCc2cc(Oc3ccc4ccccc4c3)ccc2C1 (stereo not shown) [Example 2-1, 2-carboxy-6-(naphthalene-2-yloxy)-1,2,3,4-tetrahydronaphthalene-2-aminium chloride]
900 to 5000	A			Cl.Cl.NC1(C(=O)O)CCc2ccc(Oc3ccccc3-c3ccccn3)cc2C1 (stereo not shown) [Example 1-32, 2-(2-((7-ammonio-7-carboxy-5,6,7,8-tetrahydronaphthalen-2-yl)oxy)phenyl) pyridin-1-ium chloride]
